US7138361B2, “Herbicidal heterocycles” (E. I. du Pont de Nemours and Company, priority 2000, dated 2006)

Tests used:
Format in all cases: in vivo
[1] = tested on: woolly cupgrass (Eriochloa villosa); assay: Test C preemergence; details: for Plant response rating, Cupgrass, Woolly: scale 0 to 100, 0 no effect, 100 complete control; for Plant response rating (0 to 100), Cupgrass, Woolly: visual evaluation after 12 to 14 days
Excerpt: (§1) Seeds of plant species selected from bermudagrass (Cynodon dactylon), Surinam grass (Brachiaria decumbens), cocklebur (Xanthium strumarium), corn (Zea mays), crabgrass (Digitaria sanguinalis), woolly cupgrass (Eriochloa villosa), giant foxtail (Setaria faberii), goosegrass (Eleusine indica), johnsongrass (Sorghum halepense), kochia (Kochia scoparia), lambsquarters (Chenopodium album), morningglory (Ipomoea hederacea), yellow nutsedge (Cyperus esculentus), pigweed (Amaranthus retroflexus), common ragweed (Ambrosia elatior), soybean (Glycine max) and velvetleaf (Abutilon theophrasti) were planted and treated preemergence with test chemicals formulated in a non-phytotoxic solvent mixture which included a surfactant.
(§2) At the same time, plants selected from these crop and weed species and also winter barley (Hordeum vulgare), blackgrass (Alopecurus myosuroides), canary grass (Phalaris minor), chickweed (Stellaria media), downy brome (Bromus tectorum), green foxtail (Setaria viridis), Italian ryegrass (Lolium multiflorum), wheat (Triticum aestivum), wild oat (Avena fatua) and windgrass (Apera spica-venti) were treated with postemergence applications of some of the test chemicals formulated in the same manner. Plants ranged in height from 2 to 18 cm (1- to 4-leaf stage) for postemergence treatments. Plant species in the flooded paddy test consisted of rice (Oryza saliva), smallflower flatsedge (Cyperus difformis), duck salad (Heteranthera limosa) and barnyardgrass (Echinochloa crus-galli) grown to the 2-leaf stage for testing. Treated plants and controls were maintained in a greenhouse for 12 to 14 days, after which time all species were compared to controls and visually evaluated. Plant response ratings, summarized in Table C, are based on a scale of 0 to 100 where 0 is no effect and 100 is complete control. A dash (-) response means no test result.

[2] = tested on: goosegrass (Eleusine indica); assay: Test C preemergence; details: for Plant response rating, Goosegrass: scale 0 to 100, 0 no effect, 100 complete control; for Plant response rating (0 to 100), Goosegrass: visual evaluation after 12 to 14 days
Excerpt: as §1, §2

kochia (Kochia scoparia) = assay: Test C preemergence; details: for Plant response rating, Kochia: scale 0 to 100, 0 no effect, 100 complete control; for Plant response rating (0 to 100), Kochia: visual evaluation after 12 to 14 days
Excerpt: as §1, §2

[3] = tested on: yellow nutsedge (Cyperus esculentus); assay: Test C preemergence; details: for Plant response rating, Nutsedge: scale 0 to 100, 0 no effect, 100 complete control
Excerpt: as §1, §2

[4] = tested on: cocklebur (Xanthium strumarium); assay: Test C preemergence; details: for Plant response rating, Cocklebur: scale 0 to 100, 0 no effect, 100 complete control; for Plant response rating (0 to 100), Cocklebur: visual evaluation after 12 to 14 days
Excerpt: as §1, §2

[5] = tested on: bermudagrass (Cynodon dactylon); assay: Test C preemergence; details: for Plant response rating, Bermudagrass: scale 0 to 100, 0 no effect, 100 complete control; for Plant response rating (0 to 100 where 0 is no effect and 100 is complete control), Bermudagrass: visual evaluation after 12 to 14 days
Excerpt: as §1, §2

[6] = tested on: johnsongrass (Sorghum halepense); assay: Test C preemergence; details: for Plant response rating, Johnsongrass: scale 0 to 100, 0 no effect, 100 complete control; for Plant response rating (0 to 100), Johnsongrass: visual evaluation after 12 to 14 days
Excerpt: as §1, §2

soybean (Glycine max) = assay: Test C preemergence; details: preemergence; for Plant response rating, Soybean: scale 0 to 100, 0 no effect, 100 complete control
Excerpt: as §1, §2

[7] = tested on: crabgrass (Digitaria sanguinalis); assay: Test C preemergence; details: for Plant response rating, Crabgrass: scale 0 to 100, 0 no effect, 100 complete control; for Plant response rating (0 to 100), Crabgrass: visual evaluation after 12 to 14 days
Excerpt: as §1, §2

corn (Zea mays) = assay: Test C preemergence; details: for Plant response rating, Corn: scale 0 to 100, 0 no effect, 100 complete control; for Plant response rating (0 to 100), Corn: visual evaluation after 12 to 14 days
Excerpt: as §1, §2

[8] = tested on: Surinam grass (Brachiaria decumbens); assay: Test C preemergence; details: for Plant response rating, Surinam grass: scale 0 to 100, 0 no effect, 100 complete control; for Plant response rating (0 to 100), Surinam grass: visual evaluation after 12 to 14 days
Excerpt: as §1, §2

[9] = tested on: giant foxtail (Setaria faberii); assay: Test C preemergence; details: for Plant response rating, Foxtail, Giant: scale 0 to 100, 0 no effect, 100 complete control; for Plant response rating (0 to 100), Foxtail, Giant: visual evaluation after 12 to 14 days
Excerpt: as §1, §2

[10] = tested on: pigweed (Amaranthus retroflexus); assay: Test C preemergence; details: preemergence; for Plant response rating, Pigweed: scale 0 to 100, 0 no effect, 100 complete control
Excerpt: as §1, §2

[11] = tested on: morningglory (Ipomoea hederacea); assay: Test C preemergence; details: for Plant response rating, Morningglory: scale 0 to 100, 0 no effect, 100 complete control
Excerpt: as §1, §2

[12] = tested on: velvetleaf (Abutilon theophrasti); assay: Test C preemergence; details: preemergence; for Plant response rating, Velvetleaf: scale 0 to 100, 0 no effect, 100 complete control
Excerpt: as §1, §2

[13] = tested on: common ragweed (Ambrosia elatior); assay: Test C preemergence; details: preemergence; for Plant response rating, Ragweed, Common: scale 0 to 100, 0 no effect, 100 complete control
Excerpt: as §1, §2

Nightshade = assay: Test C preemergence; details: scale 0 to 100, 0 no effect, 100 complete control
Excerpt: as §1, §2

[14] = tested on: barnyardgrass (Echinochloa crus-galli); assay: Test C flooded paddy test; details: for Barnyardgrass plant response rating: Flooded Paddy, scale 0 to 100, 0 no effect, 100 complete control; for Plant response rating, Barnyardgrass: flooded paddy test, scale 0 to 100 (0 no effect, 100 complete control)
Procedure, shortened: (§3)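 Each species was cultivated to 2 leaves in flooded paddy pots, then treated. After a greenhouse period of 12–14 days, the plants were scored visually relative to controls from 0 (no effect) to 100 (complete control).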

[15] = tested on: smallflower flatsedge (Cyperus difformis); assay: Test C flooded paddy test; details: for Flatsedge plant response rating: Flooded Paddy, scale 0 to 100, 0 no effect, 100 complete control; for Plant response rating, Flatsedge: flooded paddy test, scale 0 to 100 (0 no effect, 100 complete control)
Procedure, shortened: as §3

[16] = tested on: duck salad (Heteranthera limosa); assay: Test C flooded paddy test; details: for Ducksalad plant response rating: Flooded Paddy, scale 0 to 100, 0 no effect, 100 complete control; for Plant response rating, Ducksalad: flooded paddy test, scale 0 to 100 (0 no effect, 100 complete control)
Procedure, shortened: as §3

[17] = preemergence, Rate 500 g/ha, visual evaluation after 12 to 14 days
[18] = Rate 500 g/ha, visual evaluation after 12 to 14 days

CC1(c2ccn(C3SCN(c4cccc(OC(F)(F)F)c4)C3=O)n2)CC1 (stereo not drawn) [Compound 63]
70: Plant response rating, Kochia (kochia (Kochia scoparia); Rate 62 g/ha) | Plant response rating (0 to 100), Surinam grass ([8]; preemergence, Rate 250 g/ha) | Barnyardgrass plant response rating ([14]; Rate 250 g/ha)
40: Plant response rating (0 to 100), Soybean (soybean (Glycine max); [18]) | Plant response rating (0 to 100), Corn (corn (Zea mays); preemergence, Rate 500 g/ha) | Plant response rating (0 to 100), Morningglory [11, 17] | Plant response rating, Barnyardgrass ([14]; Rate 125 g/ha)
20: Plant response rating, Cupgrass, Woolly ([1]; Rate 62 g/ha) | Plant response rating, Nutsedge ([3]; preemergence, Rate 250 g/ha) | Plant response rating (0 to 100), Corn (corn (Zea mays); preemergence, Rate 250 g/ha) | Plant response rating, Surinam grass ([8]; Rate 62 g/ha) | Plant response rating, Surinam grass ([8]; preemergence, Rate 125 g/ha) | Plant response rating, Foxtail, Giant ([9]; Rate 62 g/ha) | Plant response rating, Morningglory ([11]; preemergence, Rate 125 g/ha) | Plant response rating, Barnyardgrass ([14]; Rate 62 g/ha) | Plant response rating, Ducksalad ([16]; Rate 62 g/ha) | Plant response rating, Ducksalad ([16]; Rate 125 g/ha)
50: Plant response rating (0 to 100), Velvetleaf [12, 18] | Plant response rating, Ragweed, Common ([13]; Rate 125 g/ha) | Plant response rating, Ragweed, Common ([13]; Rate 250 g/ha)
80: Ducksalad plant response rating ([16]; Rate 250 g/ha)
30: Plant response rating (0 to 100), Cocklebur ([4]; preemergence, Rate 250 g/ha) | Plant response rating (0 to 100), Cocklebur ([4]; preemergence, Rate 500 g/ha) | Plant response rating, Morningglory ([11]; preemergence, Rate 250 g/ha) | Plant response rating, Velvetleaf ([12]; Rate 250 g/ha) | Plant response rating, Nightshade (Nightshade; Rate 62 g/ha)
0: Plant response rating, Nutsedge ([3]; Rate 62 g/ha) | Plant response rating, Nutsedge ([3]; preemergence, Rate 125 g/ha) | Plant response rating, Cocklebur ([4]; Rate 62 g/ha) | Plant response rating, Cocklebur ([4]; preemergence, Rate 125 g/ha) | Plant response rating, Johnsongrass ([6]; Rate 62 g/ha) | Plant response rating, Soybean (soybean (Glycine max); Rate 125 g/ha) | Plant response rating, Soybean (soybean (Glycine max); Rate 250 g/ha) | Plant response rating, Corn (corn (Zea mays); Rate 62 g/ha) | Plant response rating, Corn (corn (Zea mays); preemergence, Rate 125 g/ha) | Plant response rating, Morningglory ([11]; Rate 62 g/ha) | Plant response rating, Velvetleaf ([12]; Rate 125 g/ha)
90: Plant response rating, Foxtail, Giant ([9]; preemergence, Rate 125 g/ha) | Plant response rating (0 to 100), Ragweed, Common [13, 18] | Plant response rating, Flatsedge ([15]; Rate 62 g/ha)
100: Plant response rating (0 to 100), Cupgrass, Woolly ([1]; preemergence, Rate 500 g/ha) | Plant response rating, Goosegrass ([2]; Rate 62 g/ha) | Plant response rating (0 to 100), Goosegrass ([2]; preemergence, Rate 250 g/ha) | Plant response rating (0 to 100), Goosegrass ([2]; preemergence, Rate 500 g/ha) | Plant response rating, Goosegrass ([2]; preemergence, Rate 125 g/ha) | Plant response rating (0 to 100), Kochia (kochia (Kochia scoparia); preemergence, Rate 250 g/ha) | Plant response rating (0 to 100), Kochia (kochia (Kochia scoparia); preemergence, Rate 500 g/ha) | Plant response rating, Kochia (kochia (Kochia scoparia); preemergence, Rate 125 g/ha) | Plant response rating (0 to 100), Nutsedge [3, 17] | Plant response rating, Bermudagrass ([5]; Rate 62 g/ha) | Plant response rating (0 to 100 where 0 is no effect and 100 is complete control), Bermudagrass ([5]; preemergence, Rate 250 g/ha) | Plant response rating (0 to 100 where 0 is no effect and 100 is complete control), Bermudagrass ([5]; preemergence, Rate 500 g/ha) | Plant response rating, Bermudagrass ([5]; preemergence, Rate 125 g/ha) | Plant response rating (0 to 100), Johnsongrass ([6]; preemergence, Rate 250 g/ha) | Plant response rating (0 to 100), Johnsongrass ([6]; preemergence, Rate 500 g/ha) | Plant response rating, Crabgrass ([7]; Rate 62 g/ha) | Plant response rating (0 to 100), Crabgrass ([7]; preemergence, Rate 250 g/ha) | Plant response rating (0 to 100), Crabgrass ([7]; preemergence, Rate 500 g/ha) | Plant response rating, Crabgrass ([7]; preemergence, Rate 125 g/ha) | Plant response rating (0 to 100), Surinam grass ([8]; preemergence, Rate 500 g/ha) | Plant response rating (0 to 100), Foxtail, Giant ([9]; preemergence, Rate 250 g/ha) | Plant response rating (0 to 100), Foxtail, Giant ([9]; preemergence, Rate 500 g/ha) | Plant response rating (0 to 100), Pigweed [10, 18] | Plant response rating, Pigweed ([10]; Rate 125 g/ha) | Plant response rating, Pigweed ([10]; Rate 250 g/ha) | Barnyardgrass plant response rating ([14]; Rate 500 g/ha) | Flatsedge plant response rating ([15]; Rate 250 g/ha) | Flatsedge plant response rating ([15]; Rate 500 g/ha) | Plant response rating, Flatsedge ([15]; Rate 125 g/ha) | Ducksalad plant response rating ([16]; Rate 500 g/ha)
60: Plant response rating (0 to 100), Cupgrass, Woolly ([1]; preemergence, Rate 250 g/ha) | Plant response rating, Cupgrass, Woolly ([1]; preemergence, Rate 125 g/ha) | Plant response rating, Johnsongrass ([6]; preemergence, Rate 125 g/ha) | Plant response rating, Nightshade (Nightshade; Rate 125 g/ha) | Plant response rating, Nightshade (Nightshade; Rate 250 g/ha)
